Legend:
[1] = NOVARTIS: Cytotoxicity against human hepatocellular carcinoma cell line (Huh7); format: toxicity, cell-based, Huh-7; settings: Huh7 cells (hepatocellular carcinoma cell line)
Plasmodium falciparum [2] = assay: NOVARTIS: Inhibition of Plasmodium falciparum W2 (drug-resistant) proliferation in erythrocyte-based infection assay; format: functional, organism-based; settings: Plasmodium falciparum, W2; read-out: EC50
Plasmodium falciparum [3] = assay: NOVARTIS: Inhibition of Plasmodium falciparum 3D7 (drug-susceptible) proliferation in erythrocyte-based infection assay; format: functional, organism-based; settings: Plasmodium falciparum, 3D7

| SMILES | CC50 [1] | EC50 (Plasmodium falciparum [2]) | EC50 (Plasmodium falciparum [3]) |
| --- | --- | --- | --- |
| CCOc1ccc(N(C(C)=O)C2=C(N3CCN(C)CC3)C(=O)c3ccccc3C2=O)cc1 | 12.9 µM | 0.0109 µM | 0.0787 µM |
| Cc1cc2ncn(N=Cc3cccnc3)c2cc1C | > 10 µM | > 1.25 µM | > 1.02 µM |
| CC[n+]1c(C=C2C=CN(C)C=C2)ccc2cc(C)ccc21 | > 26.8 µM | 0.286 µM | 0.388 µM |
| Oc1ccccc1-c1nc2sc(-c3ccccc3O)nc2s1 | > 10 µM | 0.467 µM | > 0.989 µM |
| OC(CN1CCN(C2c3ccccc3-c3ccccc32)CC1)Cn1c2ccc(Cl)cc2c2cc(Cl)ccc21 (stereo not drawn) | > 10 µM | 0.278 µM | 1.2 µM |
| CCCCCCn1c2c(c(=N)c3c1CCC3)CCCC2 | > 10 µM | 0.336 µM | 0.364 µM |
| Nc1cccc(Oc2ccc3c(c2)C(=O)N(c2cccc(C(=O)O)c2)C3=O)c1 | > 10 µM | > 0.277 µM | > 1.25 µM |
| N#CCSc1nc2ccccc2c2nc(CCc3c[nH]c4ccccc34)nn12 | 25.4 µM | 3.85 µM | 3.87 µM |
| COc1ccccc1CNc1ncc(C(=O)NCCCN2CCCC2=O)c(NCCc2ccccc2)n1 | > 10 µM | 1.19 µM | 0.214 µM |
| CC(NC(=O)C(=O)N1CCCCC1)C(c1cccs1)N1CCOCC1 (stereo not drawn) | > 100 µM | 0.675 µM | > 1.69 µM |
| Cc1ccn2c(NC(C)(C)CC(C)(C)C)c(-c3ccccc3OC(=O)/C=C/c3ccc([N+](=O)[O-])cc3)nc2c1 | > 10 µM | 0.0637 µM | > 1.39 µM |
| O=c1c2sccc2nc(SCc2cc(=O)n3ccccc3n2)n1Cc1ccccc1 | > 10 µM | 1.28 µM | > 1.25 µM |
| O=C(OC(C(=O)NCc1ccco1)c1ccc(F)cc1)c1ccco1 (stereo not drawn) | > 10 µM | > 0.327 µM | > 1.25 µM |
| CCN(C(=O)Cn1c(=O)oc2ccccc21)c1ccc(F)cc1 | > 10 µM | 2.31 µM | > 1.53 µM |
| CCOC(=O)C(=CNc1ccccc1[N+](=O)[O-])C(=O)OCC | > 100 µM | 1.73 µM | 7.99 µM |
| CN(CCCNc1ccnc2cc(Cl)ccc12)C(=O)c1ccc(Cl)c(Cl)c1 | > 8.36 µM | 0.122 µM | 0.0366 µM |
| CC(C)CCn1nc(C(=O)N2CCOCC2)c2c1CCN(C(=O)c1ccc(N3CCOCC3)cc1)C2 | > 100 µM | 3.96 µM | > 11.8 µM |
| COc1cc(NC(C)CCCN(Cc2ccccc2OC)C(=O)COCc2ccccc2)c2ncccc2c1 (stereo not drawn) | > 10 µM | 0.689 µM | 1.11 µM |
| CN(CCCNc1ccnc2cc(Cl)ccc12)C(=O)c1ccccc1 | > 10 µM | 0.391 µM | 0.723 µM |
| COc1cccc(NC(=O)c2sc3ncn(CC(=O)N4CCN(c5ccccn5)CC4)c(=O)c3c2C)c1 | > 100 µM | 1.24 µM | > 12.5 µM |
| CCCc1c(C)nc2ccccc2c1O | > 100 µM | 0.429 µM | 0.63 µM |
| CCCCNCCOCCOc1ccc(Br)cc1 | 35.7 µM | 1.61 µM | > 11.7 µM |
| NC(=O)CN1CC(O)CC1=O (stereo not drawn) [OXIRACETAM] | 57.5 µM | 6.22 µM | 5.96 µM |
| COc1ccc(CNCCN2CCN(c3ccccc3)C[C@@H]2Cc2ccc(O)cc2)cc1 | > 10 µM | 0.0549 µM | 0.0521 µM |
| COc1ccc(-n2nc3c(c2NC(=O)C=Cc2cc(OC)c(OC)c(OC)c2)CSC3)cc1 | > 100 µM | 0.294 µM | 0.392 µM |
| O=C(Nc1ccc([N+](=O)[O-])cc1Cl)c1cc(Br)ccc1O | 55.6 µM | 0.798 µM | > 12.5 µM |

| SMILES | CC50 [1] | EC50 (Plasmodium falciparum [2]) | EC50 (Plasmodium falciparum [3]) |
| --- | --- | --- | --- |
| Cc1cc(N2CCN(C3CCCC3)CC2)n2c(nc3ccccc32)c1C#N | > 100 µM | 1.67 µM | 0.743 µM |
| CCOc1ccccc1CN1CCCC(C(=O)N2CCCCCC2)C1 (stereo not drawn) | 37.4 µM | 1.42 µM | 4.4 µM |
| CC(C)=CCCC(C)=CCCC(C)NCCN1CCNCC1 (stereo not drawn) | 6.69 µM | 0.14 µM | 0.411 µM |
| O=C(CN1CCCC1)Nc1ccc(-c2nc3cc(NC(=O)CN4CCCC4)ccc3o2)cc1 | 36.2 µM | 1.36 µM | 2.46 µM |
| O=C(NN=Cc1ccncc1)c1cc(-c2cccc([N+](=O)[O-])c2)[nH]n1 | > 100 µM | 2.12 µM | > 8.13 µM |
| Cc1cc(OC(C)C(=O)N2CCc3ccccc32)ccc1Cl (stereo not drawn) | > 100 µM | 0.926 µM | 0.897 µM |
| CSc1oc(-c2ccccc2)nc1C(N)=O | > 10 µM | > 0.925 µM | > 1.2 µM |
| CCOC(=O)c1c(NC(C)=O)sc2c(O)c(CNC3CCCCC3)ccc12 | > 100 µM | 0.0214 µM | 0.0805 µM |
| COc1ccc(OC)c(NC(=O)COc2cc3ccccc3cc2C(=O)Nc2cc(OC)c(Cl)cc2OC)c1 | > 100 µM | 0.782 µM | 1.15 µM |
| COc1cccc(OCCN2CCN(c3ncnc4c3cnn4-c3ccccc3)CC2)c1 | > 75.7 µM | 4.05 µM | 6.25 µM |
| Cc1ccn(CC(=O)N2CCOc3c(cc(-c4csc5ccccc45)cc3OCCc3ccccn3)C2)n1 | 39 µM | 0.73 µM | 0.823 µM |
| COc1ccc(/C=C(\NC(=O)c2ccccc2Br)C(=O)N2CC3CC(C2)c2cccc(=O)n2C3)cc1OC (stereo not drawn) | > 10 µM | > 1.25 µM | > 0.764 µM |
| CCCCNC(=O)C1CCC(CN(Cc2c(Cl)cccc2Cl)S(=O)(=O)c2ccc(Br)cc2)CC1 (stereo not drawn) | > 100 µM | 0.916 µM | 0.546 µM |
| N#CC(=CC=Cc1ccc([N+](=O)[O-])o1)c1nc2ccccc2[nH]1 | 8.69 µM | 0.387 µM | 0.381 µM |
| O=C(COC(=O)c1ccc2c(c1)C(=O)N(c1ccc3ccccc3c1)C2=O)c1ccc(Br)cc1 | > 10 µM | > 1.25 µM | > 0.919 µM |
| COc1cc(Br)c(/C=C2\Sc3ccccc3C2=O)cc1OC | > 10 µM | > 0.925 µM | > 1.25 µM |
| COc1ccc(CN2CCN(C(=O)c3cccnc3)CC2)cc1OC | > 100 µM | 2.01 µM | 0.349 µM |
| CCOC(=O)C1=C(C)NC(=Cc2cc(C)n(-c3ccc(C)cc3C)c2C)C1=O | > 100 µM | 0.0785 µM | 0.0644 µM |
| COc1cc(C(=O)OCCC2CCC[N+]3(C)CCCCC23)cc(OC)c1OC (stereo not drawn) | > 100 µM | 1.34 µM | > 12.5 µM |
| N#Cc1c2c(c(N3CCN(Cc4ccc(F)cc4)CC3)n3c1nc1ccccc13)CCC2 | > 100 µM | 0.0377 µM | 0.0198 µM |
| O=C(NC1CCN(CC(O)CN(Cc2ccccc2)S(=O)(=O)c2ccccc2)C1)c1ccco1 (stereo not drawn) | > 10 µM | 0.319 µM | 1.16 µM |
| CC1CCCCN1CCCNc1ncc(C(=O)NCCc2ccccc2)c(NCC2CCCO2)n1 (stereo not drawn) | > 10 µM | > 1.56 µM | 0.914 µM |
| CCOC(=O)N1CCN(C(=O)C(NC(=O)C2CCC(C)CC2)C(C)C)CC1 (stereo not drawn) | > 10 µM | > 0.755 µM | > 1.67 µM |
| Cc1cc(N2CCN(c3ccccn3)CC2)n2c(nc3ccccc32)c1C#N | > 100 µM | 2.76 µM | 1.41 µM |
| Cn1ccnc1C1CCCCN1C(=O)c1cc(COc2ccc(F)cc2Cl)on1 (stereo not drawn) | > 100 µM | 0.673 µM | 1.83 µM |
